What was measured:
[1] = tested on: Adjuvant Induced Arthritis in Rats; experiment: Adjuvant-induced arthritis in the rat; type: in vivo, rat (Royal Hart, Wistar strain)
Description: (B) Adjuvant-induced arthritis in the rat […] Groups of three Royal Hart, Wistar strain rats weighing 200±10 g. each were injected intradermally in the right hind paw with Freund's adjuvant (dried human tubercle bacilli in a mineral oil vehicle) at a dose of 2 mg./kg. of body weight. The test compounds were administered orally in a 1.5% starch vehicle at various doses once daily on days 0 to 13 post challenge. Control rats were treated in a similar manner, but given only starch vehicle. On the 14th and 21st day post challenge the diameter of the injected paw was measured by micrometer caliper. The volume of inflamed paws were estimated from these measurements and the effects of each compound are expressed as percent inhibition of swelling as compared to controls. Table II records the results of these tests conducted with representative compounds of this invention and known anti-inflammatory agents. The active compounds of this invention suppress the progression of the arthritis and associated joint deterioration.

[2] = tested on: Carrageenin-Induced Edema; experiment: Carrageenin-induced edema in the rat; type: in vivo, rat (Royal Hart, Wistar strain); details: oral gavage, 5 hours after drug, 4 hours after carrageenin, dose not given, * p = <.05 by t test
Description: (A) Carrageenin-induced edema in the rat
In determining the acute anti-inflammatory activity of the cis-2-[2(or 3)-thenoyl]-3-hydroxy-2-alkenenitriles of the present invention, Royal Hart, Wistar strain rats, ranging in weight from 80 to 90 grams were used. The rats were fasted overnight prior to dosing but had free access to water. The test compounds were administered in aqueous suspension, by gavage, in a volume of 1.7 ml. per 50 grams of rat [corresponds to hydration volume used by Winter, et al., Proc. Soc. […] The phlogistic agent used was carrageenin prepared as a sterile 1% suspension in 0.9% aqueous sodium chloride for routine testing. A volume of 0.05 ml. was injected through a 26 gauge needle into the plantar tissue of the right hind paw. Measurements were made 5 hours after drug administration (4 hours after carrageenin challenge). Volumes of both the normal and carrageenin inflammed feet were determined. The difference between the two measurements is considered to be the increased edema due to the carrageenin administration. Results are expressed as a C/T efficacy ratio (edema of control animals/edema of treated animals).

[3] = oral 25 mg./kg. daily days 0 to 13, * p = <.05 by t test
[4] = oral 50 mg./kg. daily days 0 to 13, * (where printed) p = <.05 by t test
[5] = oral 50 mg./kg. daily days 0 to 13, no asterisk

| SMILES | % Inhibition of Swelling, Day 14 [1, 3] [%] | % Inhibition of Swelling, Day 21 [1, 3] [%] | C/T Ratio (edema of control animals/edema of treated animals) [2] | % Inhibition of Swelling, Day 14 [1, 4] [%] | % Inhibition of Swelling, Day 21 [1, 5] [%] |
| --- | --- | --- | --- | --- | --- |
| C/C(O)=C(\C#N)C(=O)c1ccc(Cl)s1 [Cis-2-(5-chloro-2-thenoyl)-3-hydroxycrotononitrile] | 49 | 31 | – | – | – |
| C/C(O)=C(\C#N)C(=O)c1cccs1 [Cis-2-(2-thenoyl)-3-hydroxycrotononitrile] | – | – | 2.04 | 42 | 6 |
| C/C(O)=C(\C#N)C(=O)c1ccsc1 [Cis-2-(3-thenoyl)-3-hydroxycrotononitrile] | – | – | 2.42 | 38 | 19 |
